Literature values as cited in patent publication US20160000075A1, “USE OF PYRIMIDINES IN STIMULATION OF PLANT GROWTH AND DEVELOPMENT AND ENHANCEMENT OF STRESS TOLERANCE” (ULUDAG ÜNIVERSITESI TEKNOLOJI TRANSFER OFISI TICARET VE …, priority 2013, published 2016).

Experiments:
tomato = conditions: 4 mM concentration
[1] = humans
[2] = tested on: hypoxic ischemic brain damage; conditions: infant rats exposed to hypoxic ischemic brain damage
[3] = tested on: learning and memory functions; conditions: experimental animals, also environmentally impoverished animals
cellular regeneration = conditions: compared to only using auxin in culture medium
[4] = tested on: hypoxic and ischemic brain injuries; conditions: animal experiments and some clinical studies
[5] = tested on: plant species such as Arabidopsis thaliana, Solanum tuberosum, Fragaria×ananassa, Medicago sativa, Triticum aestivum, Zea mays; conditions: external administration
cabbage = conditions: external administration
clover = conditions: external administration
[6] = tested on: brain lesion, rotational behaviour; conditions: uridine administered in the form of UMP

SMILES: NCCCCNCCCN [spermidine]
- high temperature tolerance (tomato): increase high temperature tolerance

SMILES: O=c1ccn([C@@H]2O[C@H](CO)[C@@H](O)[C@H]2O)c(=O)[nH]1 [uridine]
- adverse effect of intravenous dose ([1]; intravenously, 10 g/m^2): cause shaking
- adverse effect of high oral dosage ([1]; oral, 10 g per day): causes diarrhea
- level of brain damage [2]: significantly reduced the level of damage
- growth and branching of neurons (neurons in the culture): increases the growth and branching of these cells
- learning and memory functions [3]: increase learning and memory functions
- cellular regeneration (cellular regeneration): increases cellular regeneration

SMILES: C[N+](C)(C)CCOP(=O)(O)OP(=O)([O-])OC[C@H]1O[C@@H](n2ccc(N)nc2=O)[C@H](O)[C@@H]1O [CDP-choline, cytidine-5′-diphosphate choline]
- damage in hypoxic and ischemic brain injuries [4]: reduces damage in hypoxic and ischemic brain injuries

SMILES: C[N+](C)(C)CC(=O)O [GlyBet, glycine betain]
- low temperature stress tolerance [5]: increase low temperature stress tolerance
- tolerance against frost (cabbage): increases tolerance against frost
- tolerance against frost (clover): increases tolerance against frost

SMILES: O=c1ccn([C@@H]2O[C@H](COP(=O)(O)O)[C@@H](O)[C@H]2O)c(=O)[nH]1 [UMP, uridine-5′-monophosphate]
- brain lesion and rotational behaviour [6]: ameliorated brain lesion and reduced rotational behaviour
